Data set [1] addresses T1, human CRBP1 (Homo sapiens, UniProt P09455).
T1 sequence (P09455 1-135): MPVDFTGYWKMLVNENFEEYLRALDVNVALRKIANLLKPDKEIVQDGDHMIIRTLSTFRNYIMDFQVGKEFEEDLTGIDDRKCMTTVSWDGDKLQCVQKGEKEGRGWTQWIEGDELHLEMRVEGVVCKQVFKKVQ
The settings on record: abn-CBD reference value; cited from earlier work.

For data set [2] the following is noted: values as provided by PubChem; ref PubChem; cited from earlier work.
In the next data set the test system is albino mice. The settings on record: cited from earlier work.
Data set [3] addresses T1, human CRBP1. Briefly: fluorescence atROL-replacement assay (Ki determination). It is filed as binding.

Where two headings read alike, the source gives them in different places.

In the case of `C=C(C)[C@@H]1CCC(C)=C[C@H]1c1c(O)cc(O)cc1CCCCC` [abn-CBD, 4-[(1R,6R)-3-Methyl-6-prop-1-en-2-ylcyclohex-2-en-1-yl]-5-pentylbenzene-1,3-diol], on human CRBP1 [1], the Ki was 67 nM. The “log P” value in data set [2] is listed as 6.5. Further, the “protection against light-induced retinal damage” value in the data set on albino mice was “protecting against this condition in albino mice”.

On to `Cc1ccc(C2(c3noc(CN(C)Cc4cccs4)n3)CCCC2)cc1` [inhibitor 1, N-methyl-N-[[3-[1-(4-methylphenyl)cyclopentyl]-1,2,4-oxadiazol-5-yl]methyl]-1-thiophen-2-ylmethanamine], for which the Ki at human CRBP1 [3] was 9 ± 4.1 µM. Besides, in data set [2], the “log P” value is given as 4.9.

Turning to `CCN(CCn1cccn1)Cc1nc(C2(c3ccc(C)cc3)CCCC2)no1` [inhibitor 2, N-ethyl-N-[[3-[1-(4-methylphenyl)cyclopentyl]-1,2,4-oxadiazol-5-yl]methyl]-2-pyrazol-1-ylethanamine], on human CRBP1 [3], the Ki is 7.1 ± 2.7 µM. In addition, the “log P” value in data set [2] is on record as 4.0.

On to `COCC1CCN(Cc2nc(C(c3ccccc3)c3ccccc3)no2)CC1` [inhibitor 3, 3-benzhydryl-5-[[4-(methoxymethyl)piperidin-1-yl]methyl]-1,2,4-oxadiazole], for which, in data set [2], the “log P” value is given as 4.0.

Turning to `COc1ccc(S(=O)(=O)N2CCC(O)(CO)CC2)c2c1CCCC2` [inhibitor 4, 4-(hydroxymethyl)-1-[(4-methoxy-5,6,7,8-tetrahydronaphthalen-1-yl)sulfonyl]piperidin-4-ol], in data set [2], the “log P” value is 1.4.

As to `CC(c1cccs1)N(C)Cc1nc(C(c2ccccc2)c2ccccc2)no1` (stereo not shown) [inhibitor 5, N-[(3-benzhydryl-1,2,4-oxadiazol-5-yl)methyl]-N-methyl-1-thiophen-2-ylethanamine], the affinity on human CRBP1 [3], expressed as Ki, was 10.6 ± 2.5 µM. The “log P” value in data set [2] is given as 5.0.

In the case of `Cc1ccc(C2(c3noc(CN(C)Cc4cnn(C)c4)n3)CCCC2)cc1` [inhibitor 6, N-methyl-N-[[3-[1-(4-methylphenyl)cyclopentyl]-1,2,4-oxadiazol-5-yl]methyl]-1-(1-methylpyrazol-4-yl)methanamine], the Ki on human CRBP1 [3] worked out at 10.7 ± 4.5 µM. Further, the “log P” value in data set [2] is 3.5.

The values above are taken from article PMC10591915 (ACS chemical biology, 2023).
